Data from patent EP0555351B1, “OXYSULFONYL CARBAMATES” (WARNER-LAMBERT COMPANY, priority 1990, dated 1992).
Counter-ions that a name gives are not always drawn. Like-named read-outs stand apart in the source and are kept apart here.

How the values were obtained:
[1] = target: acyl-CoA: cholesterol acyltransferase (ACAT); experiment: in vitro ACAT inhibition test (IAI): formation of radiolabeled cholesterol oleate from radiolabeled oleic acid in intestinal microsomes; assay type: biochemical; conditions: tissue preparation containing rabbit intestinal microsomes, concentration required to inhibit the activity of the enzyme by 50%, read-out: IAI IC₅₀
Experimental: The ability of representative compounds of the present invention to inhibit ACAT was measured using an in vitro test more fully described in F. J. Field and R. G. Salone, Biochemica et Biophysica 712:557-570 (1982). The test assesses the ability of a test compound to inhibit the acylation of cholesterol by oleic acid by measuring the amount of radiolabeled cholesterol oleate formed from radiolabeled oleic acid in a tissue preparation containing rabbit intestinal microsomes.
The data appear in Table 1 where they are expressed in IC₅₀ values; i.e., the concentration of test compound required to inhibit the activity of the enzyme by 50%.

male Sprague-Dawley rats = experiment: in vivo screen APCC: blood cholesterol in rats after one night on a high fat, high cholesterol diet (PCC); conditions: blood cholesterol vs vehicle (CMC/Tween), dosed at 4 PM, PCC diet containing 0.5% cholic acid overnight, sacrificed at 8 AM, dose not given
Source text: In one in vivo screen designated APCC, male Sprague-Dawley rats (200 to 225 g) were randomly divided into treatment groups and dosed at 4 PM with either vehicle (CMC/Tween) or suspensions of compounds in vehicle. The normal chow diet was then replaced with a high fat, high cholesterol diet (designated PCC) containing 0.5% cholic acid. The rats consumed this diet ad libitum during the night and were sacrificed at 8 AM to obtain blood samples for cholesterol analysis using standard procedures. Statistical differences between mean cholesterol values for the same vehicle were determined using analysis of variance followed by Fisher's least significant test.

Compound	IC50 [1]	% Change (mg/dl) (male Sprague-Dawley rats)	further results
CC(C)c1cccc(C(C)C)c1OC(=O)N(C)S(=O)(=O)Oc1c(C(C)C)cccc1C(C)C [Example 31, 2,6-bis(1-methylethyl)phenyl[[2,6-bis(1-methylethyl)phenoxylsulfonyl]methyl carbamate]	63 µM	-64%	–
CCCCCCOS(=O)(=O)NC(=O)Oc1c(C(C)C)cccc1C(C)C [Example 7, 2,6-Bis(1-methylethyl)phenyl[(hexyloxy)sulfonyl]carbamate]	–	-52%	–
CCCCCCCCCCCCOC(=O)NS(=O)(=O)Oc1c(C(C)C)cccc1C(C)C [Example 5, Dodecyl [[2,6-bis(1-methylethyl)phenoxy]sulfonyl]carbamate]	13 µM	-62%	–
CCCCCCCCCCCCOS(=O)(=O)NC(=O)Oc1c(C(C)(C)C)cc(C)cc1C(C)(C)C [Example 4]	52 µM	-65%	–
CC(C)c1cccc(C(C)C)c1OC(=O)NS(=O)(=O)Oc1c(C(C)C)cccc1C(C)C [Example 27, 2,6-bis(1-methylethyl)phenyl[[2,6-bis(1-methylethyl)phenoxylsulfonyl]carbamate, 2-hydroxy-N,N,N-trimethylethanaminium salt]	3.3 µM	-72%	–
COC(=O)NS(=O)(=O)Oc1c(C(C)C)cccc1C(C)C [Example 6, Methyl[[2,6-bis(1-methylethyl)phenoxy]sulfonyl]carbamate]	> 100 µM	–	–
CC(C)(C)c1cccc(C(C)(C)C)c1OC(=O)NS(=O)(=O)Oc1c(C(C)(C)C)cccc1C(C)(C)C [Example 26, 2,6-Bis(1,1-dimethylethyl)phenyl[(2,6-bis(1,1-dimethylethyl)phenoxy)sulfonyl]carbamate]	–	-18%	–
Cc1cc(C(C)(C)C)c(OC(=O)NS(=O)(=O)Oc2ccccc2)c(C(C)(C)C)c1 [Example 2, 2,6-Bis(1,1-dimethylethyl)-4-methylphenyl(phenoxysulfonyl)carbamate]	–	-65%	–
CCCCCCOS(=O)(=O)NC(=O)Oc1c(C(C)(C)C)cc(C)cc1C(C)(C)C [Example 3, 2,6-Bis(1,1-dimethylethyl)-4-methylphenyl[(hexyloxy)sulfonyl]carbamate]	–	-56%	–
CC(C)c1cccc(C(C)C)c1OC(=O)NS(=O)(=O)Oc1c(C(C)C)cccc1C(C)C [Example 1, 2,6-Bis(1-methylethyl)phenyl[[2,6-bis(1-methylethyl)phenoxy]sulfonyl]carbamate]	–	-70%	–
CCCCCCCCCCCCCCCCOS(=O)(=O)NC(=O)Oc1c(C(C)C)cccc1C(C)C [Example 23, 2,6-Bis(1-methylethyl)phenyl[(hexadecyloxy)sulfonyl]carbamate]	–	-59%	–
Cc1cccc(C)c1OS(=O)(=O)NC(=O)Oc1c(C(C)C)cccc1C(C)C [Example 18, 2,6-Bis(1-methylethyl)phenyl[(2,6-dimethylphenoxy)sulfonyl]carbamate]	–	-58%	–
COc1cc(OC)c(OS(=O)(=O)NC(=O)Oc2c(C(C)C)cccc2C(C)C)c(OC)c1 [Example 21, 2,6-Bis(1-methylethyl)phenyl[(2,4,6-trimethoxyphenoxy)sulfonyl]carbamate]	–	-61%	–
CCCCCCCCCCCCOS(=O)(=O)NC(=O)Oc1c(C(C)C)cccc1C(C)C [Example 8]	13 µM	-68%	–
CC(C)c1cccc(C(C)C)c1OC(=O)NS(=O)(=O)Oc1c(F)cccc1F [Example 22]	38 µM	+9%	–
CC(C)c1cccc(C(C)C)c1OC(=O)NS(=O)(=O)Oc1ccc(F)cc1F [Example 20]	50 µM	-11%	–
CCCCCCCCCCCCOS(=O)(=O)NC(=O)Oc1c(-c2ccccc2)cccc1-c1ccccc1 [Example 10, [1,1':3',1''-Terphenyl]-2'-yl[(dodecyloxy)sulfonyl]carbamate]	> 10 µM	-69%	–
CC(C)c1cccc(C(C)C)c1OC(=O)NS(=O)(=O)Oc1ccccc1 [Example 17, 2,6-Bis(1-methylethyl)phenyl(phenoxysulfonyl)carbamate]	–	-26%	–
CC(C)c1cccc(C(C)C)c1OC(=O)NS(=O)(=O)Oc1c(C(C)C)cccc1C(C)C [Example 28, 2,6-bis(1-methylethyl)phenyl[[2,6-bis(1-methylethyl)phenoxy]sulfonyl]carbamate, monosodium salt]	–	–	IC50 ([1]; monosodium salt): 5.2 µM; % Change (mg/dl) (male Sprague-Dawley rats; monosodium salt): -65%
COc1cccc(OC)c1OS(=O)(=O)NC(=O)Oc1c(C(C)C)cccc1C(C)C [Example 19, 2,6-Bis(1-methylethyl)phenyl[(2,6-dimethoxyphenoxy)sulfonyl]carbamate]	–	-70%	–
CC(C)c1cccc(C(C)C)c1OS(=O)(=O)NC(=O)Oc1c(C(C)(C)C)cccc1C(C)(C)C [Example 9, 2,6-Bis(1,1-dimethylethyl)phenyl[[2,6-bis(1-methylethyl)phenoxy]sulfonyl]carbamate]	–	-70%	–
COc1cccc(OC)c1OC(=O)NS(=O)(=O)Oc1c(OC)cccc1OC [Example 25, 2,6-dimethoxyphenyl[(2,6-dimethoxyphenoxy)sulfonyl]carbamate]	–	-10%	–
CC(C)c1cccc(C(C)C)c1OC(=O)NS(=O)(=O)Oc1c(C(C)(C)C)cccc1C(C)(C)C [Example 24, 2,6-Bis(1-methylethyl)phenyl[[2,6-bis(1,1-dimethylethyl)phenoxy]sulfonyl]carbamate]	–	-55%	–
CCCCCCCCCCCCOS(=O)(=O)NC(=O)Sc1c(C(C)C)cccc1C(C)C [Example 30, S-[2,6-bis(1-methylethyl)phenyl][(dodecyloxy)sulfonyl]carbamothioate]	–	-9%	–
